Reference: patent US9434724B2, “Quinuclidines for modulating alpha 7 activity” (priority 2014, dated 2016)

Tests used:
[1] = molecular target: rat brain nicotinic receptor (α7 NAChR) (Rattus norvegicus (Rat), UniProt Q05941); format: binding
[2] = Metabolic stability assay in rat liver microsomes (RLM); format: in vitro ADME; settings: 1 μM
How it was run: (§1)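 In Protocol 1, compound was 1 μM final with NADPH at 37 °C, sampled at 0–45 min. In Protocol 2, 1.5 μM compound with 0.75 mg/mL microsomes (pre-NADPH mix) in 0.1 M potassium phosphate, 1 mM EDTA, pH 7.4 was pre-incubated 10 min, then NADPH started the reaction. Both: LC-MS/MS % remaining versus time 0, half-life from single-phase exponential fit.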

[3] = Metabolic stability assay in human liver microsomes (HLM); format: in vitro ADME; settings: 1 μM
How it was run: as §1

Human plasma stability = format: in vitro ADME; settings: plasma; for % Remaining @ 2 h: 5 μM
How it was run: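 Protocol 1: 1 μM compound in pH 7.4 sodium-heparin human plasma at 37° C, sampled 0–120 min. Protocol 2: 5 μM in plasma at pH 7.4–8.0, 37° C, duplicates, sampled 0–120 min. Both: LC-MS/MS percent remaining versus t0; half-life from single-phase exponential decay.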

Chain of rat brain nicotinic receptor (α7 NAChR) (Q05941 23-502 limits assumed): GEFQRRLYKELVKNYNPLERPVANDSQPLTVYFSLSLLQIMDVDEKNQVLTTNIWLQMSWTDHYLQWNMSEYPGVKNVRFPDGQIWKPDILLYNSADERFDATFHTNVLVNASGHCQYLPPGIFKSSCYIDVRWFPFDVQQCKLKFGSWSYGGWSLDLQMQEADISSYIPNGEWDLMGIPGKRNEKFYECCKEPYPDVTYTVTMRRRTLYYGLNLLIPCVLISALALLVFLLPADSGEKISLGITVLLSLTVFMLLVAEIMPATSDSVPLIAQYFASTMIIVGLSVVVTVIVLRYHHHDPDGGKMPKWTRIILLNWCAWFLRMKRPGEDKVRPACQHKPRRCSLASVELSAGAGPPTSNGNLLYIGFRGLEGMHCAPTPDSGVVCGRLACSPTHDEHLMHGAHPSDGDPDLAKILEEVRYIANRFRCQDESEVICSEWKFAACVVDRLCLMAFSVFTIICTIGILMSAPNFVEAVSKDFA

| Compound | IC50 [1] [nM] | Ki [1] [nM] | RLM ([2]; Protocol No. 1, rat liver microsomes) [mL/min/kg] | HLM ([3]; Protocol No. 1, human liver microsomes) [mL/min/kg] | % Remaining @ 2 h (Human plasma stability; Protocol No. 2, 37° C.) [%] | RLM ([2]; rat, microsomes) [mL/min/kg] | HLM ([3]; human, microsomes) [mL/min/kg] | % Remaining @ 2 h (Human plasma stability; human, 2 h) [%] | T1/2 (Human plasma stability; human) |
| --- | --- | --- | --- | --- | --- | --- | --- | --- | --- |
| Cc1cc(Cl)c2c(C(=O)OCC34CCN(CC3)CC4)c[nH]c2c1.Cl [Compound 65, quinuclidin-4-ylmethyl 4-chloro-6-methyl-1H-indole-3-carboxylate hydrochloride] | 63.6 | 54.6 | 286.666 | 2.253 | 72.66 |  |  |  |  |
| O=C(OCC12CCN(CC1)CC2)c1c[nH]c2cc(O)cc(Cl)c12 [Compound 46, quinuclidin-4-ylmethyl 4-chloro-6-hydroxy-1H-indole-3-carboxylate] | 33.4 | 28.6 |  |  |  | 32.4827 | 7.385 | 91.9 |  |
| COc1c(OCC(F)(F)F)ccc2[nH]cc(C(=O)OCC34CCN(CC3)CC4)c12 [Compound 88, quinuclidin-4-ylmethyl 4-methoxy-5-(2,2,2-trifluoroethoxy)-1H-indole-3-carboxylate] |  |  |  |  |  | 25.96 | 3.31 | 110.47 | ∞ |
